The text below walks through data of patent US8466170B2, “7-azaindole derivatives” (Merck Patent GmbH, priority 2008, dated 2013).

pIC50: −log10 of the molar value.

What all share (type): biochemical
One assay deals with AMPK. The assay is described as follows: AMPK enzyme inhibition. The following applies: Target AMPK.
The next assay deals with T1, SAPK3 (Homo sapiens, UniProt P53778).
T1 sequence (P53778 1-367): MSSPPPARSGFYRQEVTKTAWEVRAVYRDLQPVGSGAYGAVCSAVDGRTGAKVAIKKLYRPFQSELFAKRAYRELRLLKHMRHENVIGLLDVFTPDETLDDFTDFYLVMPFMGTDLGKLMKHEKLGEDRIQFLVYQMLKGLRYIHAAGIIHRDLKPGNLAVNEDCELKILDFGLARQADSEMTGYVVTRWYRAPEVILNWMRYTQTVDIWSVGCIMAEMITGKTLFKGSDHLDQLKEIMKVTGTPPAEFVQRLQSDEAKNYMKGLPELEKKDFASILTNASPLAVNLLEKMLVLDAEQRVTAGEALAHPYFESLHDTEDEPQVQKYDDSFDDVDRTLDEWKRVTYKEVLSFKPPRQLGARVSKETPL
The assay is described as follows: SAPK3 enzyme inhibition. The following applies: Target SAPK3.

The target in the next assay is GSK3-beta (Homo sapiens, UniProt P49841). Kind of assay: Measurement of the GSK3-beta activity. The following applies: Target GSK3-beta; read-out: Inhibition IC50 (enzyme). The procedure: The GSK3-beta activity can be measured analogously to WO 2008/078196. GSK3b (5-20 mU diluted in 20 mM MOPS ph 7.5, 1 mM EDTA, […], 0.01% Brj35, 5% glycerol, 0.1% beta-mercaptoethanol, 1 mg/ml of BSA) is measured against phospho-GS2 peptide ([…](PO4)EDEEE) in a final volume of 25.5 μl containing 8 mM MOPS ph 7.0, 0.2 mM EDTA, 20 μM phospho GS2 peptide, 10 mM magnesium acetate and 0.005 mM [33P-g-ATP] (50-1000 cpm/pmol) and is incubated at room temperature for 30 minutes. The assay is stopped by addition of 5 μl of 0.5 M (3%) orthophosphoric acid and is then harvested on P81 unifilter plates with a wash buffer (50 mM orthophosphoric acid).

In the next assay the target is CHK2 (Homo sapiens, UniProt O96017). Kind of assay: CHK2 enzyme inhibition. The settings on record: Target CHK2.
In another assay the target is T2, SGK1 (Homo sapiens, UniProt O00141).
T2 sequence (O00141 1-431): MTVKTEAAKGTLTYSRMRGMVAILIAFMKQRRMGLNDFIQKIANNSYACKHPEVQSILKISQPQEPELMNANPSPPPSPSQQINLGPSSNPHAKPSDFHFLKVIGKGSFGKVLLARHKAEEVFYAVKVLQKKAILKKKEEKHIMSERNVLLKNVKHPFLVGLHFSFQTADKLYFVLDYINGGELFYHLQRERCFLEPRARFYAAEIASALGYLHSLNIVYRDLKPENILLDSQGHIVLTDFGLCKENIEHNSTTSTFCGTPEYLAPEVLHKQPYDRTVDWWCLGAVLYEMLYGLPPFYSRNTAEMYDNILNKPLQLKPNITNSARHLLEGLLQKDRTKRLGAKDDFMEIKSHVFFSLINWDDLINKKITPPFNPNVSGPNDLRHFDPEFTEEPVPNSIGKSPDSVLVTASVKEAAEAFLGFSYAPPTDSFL
The assay is described as follows: SGK1 enzyme inhibition (filter binding method). The following applies: Target SGK1. The text has this: The inhibition of SGK1 protein kinase can be determined in the filter binding method.

A further assay concerns the target MKK1 (Homo sapiens, UniProt Q02750). Kind of assay: MKK1 enzyme inhibition. The settings on record: Target MKK1.
The next assay addresses T3, Met kinase (Homo sapiens, UniProt P08581).
T3 construct: 6His (N); purchased Upstate 14-526; host or cells: Sf21 insect cells (S. frugiperda), baculovirus
The assay is described as follows: Met kinase flashplate method. The following applies: Target Met kinase; read-out: Inhibition IC50 (enzyme). The text has this: According to the manufacturer's data (Met, active, Upstate, catalogue No. 14-526), Met kinase is expressed for the purposes of protein production in insect cells (Sf21; S. frugiperda) and subsequent affinity-chromatographic purification as “N-terminal 6His-tagged” recombinant human protein in a baculovirus expression vector.
The kinase activity can be measured using various available measurement systems. In the scintillation proximity method (Sorg et al., J. of Biomolecular Screening, 2002, 7, 11-19), the flashplate method or the filter binding test, the radioactive phosphorylation of a protein or peptide as substrate is measured using radioactively labelled ATP (^32P-ATP, ^33P-ATP). In the case of the presence of an inhibitory compound, a reduced radioactive signal, or none at all, can be detected. Furthermore, homogeneous time-resolved fluorescence resonance energy transfer (HTR-FRET) and fluoroescence polarisation (FP) technologies can be used as assay methods (Sills et al., J. of Biomolecular Screening, 2002, 191-214).
The test plates used are 96-well Flashplate^R microtitre plates from Perkin Elmer (Cat. No. SMP200). […] The measurement of the bound radioactivity is carried out by means of a scintillation measuring instrument (Topcount NXT, Perkin-Elmer).
The full value used is the inhibitor-free kinase reaction. […] The inhibitory values (IC50) are determined using the RS1_MTS program. […]

T3 sequence (P08581 974-1390 limits assumed): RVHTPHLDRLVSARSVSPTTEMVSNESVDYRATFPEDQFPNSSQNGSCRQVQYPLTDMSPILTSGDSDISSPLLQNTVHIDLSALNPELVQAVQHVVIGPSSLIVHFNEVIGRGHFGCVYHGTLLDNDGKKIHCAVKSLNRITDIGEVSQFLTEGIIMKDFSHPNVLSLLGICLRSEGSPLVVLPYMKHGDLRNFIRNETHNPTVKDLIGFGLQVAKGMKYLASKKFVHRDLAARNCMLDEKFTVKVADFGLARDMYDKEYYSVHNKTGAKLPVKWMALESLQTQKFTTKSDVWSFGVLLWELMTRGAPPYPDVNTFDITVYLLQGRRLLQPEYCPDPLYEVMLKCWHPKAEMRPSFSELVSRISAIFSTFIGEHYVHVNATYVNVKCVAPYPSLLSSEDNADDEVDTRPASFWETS
Sequence of CHK2 (O96017 whole entry, species assumed): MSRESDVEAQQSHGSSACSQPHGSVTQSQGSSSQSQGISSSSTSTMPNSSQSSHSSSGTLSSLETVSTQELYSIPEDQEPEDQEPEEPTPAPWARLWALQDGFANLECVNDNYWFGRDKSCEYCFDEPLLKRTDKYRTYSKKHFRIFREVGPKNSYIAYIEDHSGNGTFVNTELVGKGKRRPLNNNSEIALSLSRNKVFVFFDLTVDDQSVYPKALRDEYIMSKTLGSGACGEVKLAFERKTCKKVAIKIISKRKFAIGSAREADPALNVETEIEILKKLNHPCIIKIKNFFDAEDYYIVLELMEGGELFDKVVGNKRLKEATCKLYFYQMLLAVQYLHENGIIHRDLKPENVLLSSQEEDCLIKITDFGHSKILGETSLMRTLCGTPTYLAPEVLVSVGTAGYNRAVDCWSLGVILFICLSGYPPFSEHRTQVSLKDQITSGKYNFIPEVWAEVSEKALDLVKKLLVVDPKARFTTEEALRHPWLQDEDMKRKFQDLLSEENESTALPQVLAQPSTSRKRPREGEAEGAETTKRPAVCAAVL
Sequence of GSK3-beta (P49841 whole entry, species assumed): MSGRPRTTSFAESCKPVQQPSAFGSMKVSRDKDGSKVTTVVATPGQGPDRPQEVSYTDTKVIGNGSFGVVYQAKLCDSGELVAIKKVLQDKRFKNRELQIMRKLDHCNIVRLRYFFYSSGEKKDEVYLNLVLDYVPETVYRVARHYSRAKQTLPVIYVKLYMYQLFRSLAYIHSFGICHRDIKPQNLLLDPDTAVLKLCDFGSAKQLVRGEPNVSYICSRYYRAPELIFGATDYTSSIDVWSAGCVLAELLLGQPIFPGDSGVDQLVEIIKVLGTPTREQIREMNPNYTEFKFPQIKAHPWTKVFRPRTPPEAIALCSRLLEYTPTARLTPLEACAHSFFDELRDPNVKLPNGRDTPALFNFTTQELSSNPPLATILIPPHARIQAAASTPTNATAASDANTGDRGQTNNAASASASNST
Sequence of MKK1 (Q02750 whole entry, species assumed): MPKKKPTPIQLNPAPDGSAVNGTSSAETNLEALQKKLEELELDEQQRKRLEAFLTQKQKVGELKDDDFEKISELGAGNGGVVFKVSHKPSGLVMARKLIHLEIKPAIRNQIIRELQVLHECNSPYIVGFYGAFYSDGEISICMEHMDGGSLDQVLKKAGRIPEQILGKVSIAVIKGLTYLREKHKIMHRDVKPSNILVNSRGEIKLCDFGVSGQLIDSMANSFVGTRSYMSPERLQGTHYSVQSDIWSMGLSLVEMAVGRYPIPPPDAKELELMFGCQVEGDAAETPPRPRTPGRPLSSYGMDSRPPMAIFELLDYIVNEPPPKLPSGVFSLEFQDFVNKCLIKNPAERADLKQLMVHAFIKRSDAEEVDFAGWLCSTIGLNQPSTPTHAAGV

Consider `COc1cccc(CNc2nnc(-c3c[nH]c4ncccc34)o2)c1` [Compound A1, (3-methoxybenzyl)-[5-(1H-pyrrolo[2,3-b]pyridin-3-yl)-1,3,4-oxadiazol-2-yl]amine], for which the pIC50 against AMPK was 7.00 to 9.00; at SAPK3 it was 5.00 to 7.00; on GSK3-beta it was 7.00 to 9.00; at CHK2 it was 7.00 to 9.00; on SGK1, 7.00 to 9.00; at MKK1, 7.00 to 9.00. On to `c1ccc(Nc2nnc(-c3c[nH]c4ncccc34)o2)cc1` [Compound A2, phenyl-[5-(1H-pyrrolo[2,3-b]pyridin-3-yl)-1,3,4-oxadiazol-2-yl]amine], for which the pIC50 at SGK1 was 5.00 to 7.00. Same read-out and setting: with `Nc1nnc(-c2c[nH]c3ncccc23)o1` [Compound A3, 5-(1H-pyrrolo[2,3-b]pyridin-3-yl)-1,3,4-oxadiazol-2-ylamine] the figure was 5.00 to 7.00. Consider `COc1cccc(CNc2nnc(-c3c[nH]c4ncc(Br)cc34)o2)c1` [Compound A4], for which the pIC50 on Met kinase is 5.00 to 7.00; at SGK1, 7.00 to 9.00. In the case of `Fc1cccc(CNc2nnc(-c3c[nH]c4ncccc34)o2)c1` [Compound A5], the negative-log IC50 (pIC50) is 5.00 to 7.00 at Met kinase and 7.00 to 9.00 on SGK1. Take `COc1cccc(CNc2nnc(-c3c[nH]c4ncc(-c5cn[nH]c5)cc34)o2)c1` [Compound A6]: the pIC50 on SGK1 was 5.00 to 7.00. Still for that read-out and setting: with `COc1cccc(CNc2nnc(-c3c[nH]c4ncccc34)n2Cc2ccccc2)c1` [Compound A9, [4-benzyl-5-(1H-pyrrolo[2,3-b]pyridin-3-yl)-4H-1,2,4-triazol-3-yl]-(3-methoxybenzyl)amine] the figure was 5.00 to 7.00. Still for that read-out and setting: with `COc1cccc(CNc2nnc(-c3c[nH]c4ncccc34)n2N)c1` [Compound A10, N*3*-(3-methoxybenzyl)-5-(1H-pyrrolo[2,3-b]pyridin-3-yl)-1,2,4-triazole-3,4-diamine] the figure was 5.00 to 7.00.

A word on the pIC50: it is the IC50 on a negative log10 scale, so that one unit is a factor of ten.
